For data set [1] the following is noted: rcm bond, Zhan 1B, DCE.
Data set [2] deals with genotype 1b (Con1) wild-type transient HCV replicon in Huh-7-derived cells. As to the kind of experiment: Transient-transfected HCV replicon EC50, genotype 1b wild type. It counts as cell-based. The following applies: Hepatitis C virus; transient-transfected replicon genotype 1b wild type, 72 h; read-out: EC50 1B WT. For orientation: In antiviral work, replicon cells carry a viral genome segment that copies itself.

The subject of data set [3] is genotype 1a (H77) wild-type transient HCV replicon in Huh-7-derived cells. The data set is described as follows: Transient-transfected HCV replicon EC50, genotype 1a wild type. It counts as cell-based. Particulars: Hepatitis C virus; transient-transfected replicon genotype 1a wild type, 72 h; read-out: EC50 1A WT.
For data set [4], the system named is genotype 1b transient HCV replicon, NS3/4a protease inhibitor resistant variant D168A, in Huh-7-derived cells. As to the kind of experiment: Transient-transfected HCV replicon EC50, genotype 1b D168A. It counts as cell-based. Particulars: Hepatitis C virus, 72 h, read-out: EC50 1B D168A.
The target in the next data set is T1, NS3 genotype 1b protease (Hepatitis C virus genotype 1b, UniProt Q9WMX2, E1202G).
T1 construct: Purified NS3 protease domain (amino acids 1-181) of the genotype 1b and 3a virus were generated as above; K3 hexahistidine tag (N); rTEV protease cleavage site (N); made in house; host or cells: E. coli BL21AI, pET28 vector p28-N6H-Tev-NS3(181)1b
The data set is described as follows: Ki determination, NS3 protease genotype 1b (fluorogenic depsipeptide substrate). It counts as biochemical. The text has this: The coding sequence of the genotype 1b (con-1 strain) HCV NS3 protease domain was PCR amplified from a plasmid encoding the I389luc-ubi-neo/NS3-3′/ET replicon (Reblikon, Mainz, Germany). The 5′-PCR primer was designed to encode an N-terminal K3 hexahistidine tag and to insert an in-frame recombinant Tobacco Etch virus (rTEV) protease cleavage site into the NS3 coding sequence. The resulting DNA fragment was cloned into the pET28 protein expression vector (Invitrogen, Carlsbad, Calif.) yielding the p28-N6H-Tev-NS3(181)1b.
BL21AI bacteria (Invitrogen, Carlsbad, Calif.) were transformed with genotype 1b or 3 NS3 expression vectors and used to inoculate a 20 L fermentation vessel (Sartorius BBI System Inc., Bethlehem, Pa.), containing 18 L of fresh 2YT medium supplemented with 50 μg/mL kanamycin. When cell densities reached an OD600 of 1, the temperature of the cultures was reduced from 37° C. to 28° C. and induction was immediately initiated by the addition of 30 μM ZnSO4, 14 mM L-arabinose and 1 mM Isopropyl β-D-thiogalactoside (IPTG) final concentrations. Cells were harvested by centrifugation four hours post-induction and were stored as frozen pellets at −80° C. prior to NS3 protein purification.
Cell pellets were thawed and resuspended at 10 mL/g cells in lysis buffer containing 50 mM tris pH 7.6, 300 mM NaCl, 0.1% 3-[(3-cholamidopropyl)dimethylammonio]-1-propanesulfonate (CHAPS), 5% glycerol, and 2 mM β-mercaptoethanol. Cell suspensions were then sonicated, filtered through cheesecloth, and passed three times through a microfluidizer at 18,000 pounds/in^2. The resulting lysates were centrifuged at 15500 rpm for 45 minutes and supernatants were loaded onto a HisTrap HP column (GE Lifesciences) pre-equilibrated with five volumes of Ni buffer A (50 mM tris pH 7.6, 300 mM NaCl, 0.1% CHAPS, 5% glycerol, 2 mM β-mercaptoethanol, 50 mM imidazole-HCl). Proteins were eluted with a 0-100% gradient of Ni buffer A plus 500 mM imidazole-HCl and fractions were collected and pooled. The HisTrap pool was diluted 1:10 with SP-A buffer (50 mM tris pH 7.0, 10% glycerol, 2 mM dithiothreitol (DTT)) and loaded onto a HiTrap SP-HP column (GE Lifesciences) equilibrated with SP-A buffer. NS3 protease was eluted with a 0-100% SP-B buffer (SP-A buffer plus 1 M NaCl) gradient. Concentrated pools of NS3-containing SP fractions were aliquoted, snap frozen in liquid nitrogen and stored at −80° C.
Purified NS3 protease domain (amino acids 1-181) of the genotype 1b and 3a virus were generated as above.
Reactions were run at room temperature in buffer consisting of 50 mM HEPES, 40% glycerol, 0.05% Triton X-100, 10 mM DTT, and 10% DMSO. The final assay solutions contained 50 pM NS3 genotype 1b protease or 200 pM genotype 3a protease, 20 μM NS4A peptide, and 4 μM substrate (genotype 1 b) or 2 μM substrate (genotype 3a). Inhibitor concentrations varied from 100 nM to 5 pM in 3-fold dilutions, and no-inhibitor controls were included.
Compound dilutions were made in DMSO at 20× final concentration. Reaction mixtures were prepared in 96-well assay plates. A solution of enzyme and NS4A peptide in assay buffer (25 μL volume with both reagents at 4× final concentration) was mixed with 45 μL assay buffer and 5 μL of either inhibitor or DMSO, and pre-incubated at room temperature for 1 hour. The reaction was started by addition of 25 μL substrate solution at 4× final concentration. Plates were mixed vigorously for 5-10 seconds and reactions were allowed to proceed for 90 minutes. fluorescence was measured every 30 s between 90 and 120 minutes reaction time using a Tecan InfiniTe M1000 or PerkinElmer Envision multimode plate reader with an excitation wavelength of 340 nm and an emission wavelength of 490 nm.
To determine the K, rates were plotted as a function of inhibitor concentration, and the data were fit with equation 1 (Morrison, J. F., Biochimica et Biophysica Acta 1969, 185, 269-286) to calculate Ki^app using GraphPad Prism 5.

Data set [5] concerns genotype 1a transient HCV replicon, NS3/4a protease inhibitor resistant variant R155K, in Huh-7-derived cells. The data set is described as follows: Transient-transfected HCV replicon EC50, genotype 1a R155K. It counts as cell-based. Particulars: Hepatitis C virus, 72 h, read-out: EC50 1A R155K.
The next data set addresses T2, NS3 genotype 3a protease (UniProt Q81258).
T2 construct: Purified NS3 protease domain (amino acids 1-181) of the genotype 1b and 3a virus were generated as above; fused on or other part: N-terminal hexahistidine tag and rTEV protease cleavage site (vector p28-N6H-Tev-NS3(181)3)
T2 sequence (Q81258 1033-1663): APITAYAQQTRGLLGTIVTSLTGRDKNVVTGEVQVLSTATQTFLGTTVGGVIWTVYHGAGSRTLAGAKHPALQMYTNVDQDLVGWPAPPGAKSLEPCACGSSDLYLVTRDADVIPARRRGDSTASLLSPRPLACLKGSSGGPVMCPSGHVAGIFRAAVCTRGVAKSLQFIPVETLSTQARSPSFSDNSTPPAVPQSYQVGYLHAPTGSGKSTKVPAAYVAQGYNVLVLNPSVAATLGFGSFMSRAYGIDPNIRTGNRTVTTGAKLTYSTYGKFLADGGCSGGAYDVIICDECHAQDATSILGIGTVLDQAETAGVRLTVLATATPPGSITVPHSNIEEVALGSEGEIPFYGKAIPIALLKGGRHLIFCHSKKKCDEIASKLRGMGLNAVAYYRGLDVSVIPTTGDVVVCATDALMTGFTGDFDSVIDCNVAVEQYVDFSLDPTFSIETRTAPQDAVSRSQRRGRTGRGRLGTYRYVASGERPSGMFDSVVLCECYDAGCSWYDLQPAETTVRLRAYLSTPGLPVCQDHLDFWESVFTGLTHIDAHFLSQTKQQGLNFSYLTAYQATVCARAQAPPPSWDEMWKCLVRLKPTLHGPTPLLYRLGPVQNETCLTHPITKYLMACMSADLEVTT
The data set is described as follows: Ki determination, NS3 protease genotype 3a (fluorogenic depsipeptide substrate). The following applies: 200 pM enzyme, 20 μM NS4A peptide, 2 μM substrate, read-out: Ki 3A. It counts as biochemical, hepatitis C virus. An outline of the steps: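 Refolded His-tagged NS3 protease domain (aa 1-181, genotype 3a) at 200 pM with 20 μM NS4A peptide was pre-incubated 1 h at RT with inhibitor (100 nM–5 pM, 3-fold), then 2 μM FRET depsipeptide substrate was added in HEPES/40% glycerol/10% DMSO buffer. Steady-state rates over 90-120 min (ex 340/em 490 nm) versus inhibitor concentration gave Ki.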

Structures are written as SMILES. Read-outs that look alike come from different tables or passages of the source.

Take `CC[C@@H]1[C@@H]2CN(C(=O)[C@H](C(C)(C)C)NC(=O)O[C@]3(C)CCC[C@H]3CCCC=Cc3nc4ccc(OC)cc4nc3O2)[C@@H]1C(=O)OC`: the ring closure, yield of all isomers in data set [1] (from C=CCCC[C@@H]1CCC[C@@]1(C)OC(=O)N[C@H](C(=O)N1C[C@H](Oc2nc3cc(OC)ccc3nc2C=C)[C@@H](CC)[C@H]1C(=O)OC)C(C)(C)C, 19.9 mM, 80.0 °C, […]) is 77.2%.
`CCC[C@@H]1[C@@H]2CN(C(=O)[C@H](C(C)(C)C)NC(=O)O[C@@H]3C[C@H]3CCCC=Cc3nc4ccc(OC)cc4nc3O2)[C@@H]1C(=O)OC(C)(C)C` registered a ring closure, yield of all isomers in data set [1] (from C=CCCC[C@@H]1C[C@H]1OC(=O)N[C@H](C(=O)N1C[C@H](Oc2nc3cc(OC)ccc3nc2C=C)[C@@H](CCC)[C@H]1C(=O)OC(C)(C)C)C(C)(C)C, 5.0 mM, 100.0 °C, 1.0 h) of 80.7%.
Take `CC[C@@H]1[C@@H]2CN(C(=O)[C@H](C(C)(C)C)NC(=O)OC3(C(F)(F)F)CCCC3CCCC=Cc3nc4ccc(OC)cc4nc3O2)[C@@H]1C(=O)OC(C)(C)C` (stereo partly drawn): the ring closure, yield of all isomers in data set [1] (from C=CCCCC1CCCC1(OC(=O)N[C@H](C(=O)N1C[C@H](Oc2nc3cc(OC)ccc3nc2C=C)[C@@H](CC)[C@H]1C(=O)OC(C)(C)C)C(C)(C)C)C(F)(F)F, 5.0 mM, 100.0 °C, 0.5 h) was found to be 84.7%.
A word on the EC50: it is the midpoint of the concentration-response curve. As a reminder, the Ki is a measure of affinity in units of concentration, obtained from inhibition or displacement. Turning to `CC[C@@H]1[C@@H]2CN(C(=O)[C@H](C3CCCCC3)NC(=O)O[C@@H]3C[C@H]3CCCCCc3nc4ccc(OC)cc4nc3O2)[C@@H]1C(=O)N[C@]1(C(=O)NS(=O)(=O)C2(C)CC2)C[C@H]1C(F)F` [Example 16, (1aR,5S,8S,9S,10R,22aR)-5-cyclohexyl-N-[(1R,2R)-2-(difluoromethyl)-1-{[(1-methylcyclopropyl)sulfonyl]carbamoyl}cyclopropyl]-9-ethyl-14-methoxy-3,6-dioxo-1,1a,3,4,5,6,9,10,18,19,20,21,22,22a-tetradecahydro-8H-7,10-methanocyclopropa[18,19][1,10,3,6]dioxadiazacyclononadecino[11,12-b]quinoxaline-8-carboxamide], the EC50 in data set [2] amounted to 5.8 nM; in data set [3], 9.4 nM; in data set [4] it was 61 nM; in data set [5], 22 nM. Also, the Ki on NS3 genotype 1b protease was found to be 0.09 nM.
Take `CC[C@@H]1[C@@H]2CN(C(=O)[C@H](C(C)(C)C)NC(=O)O[C@@H]3C[C@H]3CC/C=C/C(F)(F)c3nc4ccc(C#N)cc4nc3O2)[C@@H]1C(=O)N[C@]1(C(=O)NS(=O)(=O)C2(C)CC2)C[C@H]1C(F)F` [Example 84, (1aR,5S,8S,9S,10R,19E,22aR)-5-tert-butyl-14-cyano-N-[(1R,2R)-2-(difluoromethyl)-1-{[(1-methylcyclopropyl)sulfonyl]carbamoyl}cyclopropyl]-9-ethyl-18,18-difluoro-3,6-dioxo-1,1a,3,4,5,6,9,10,18,21,22,22a-dodecahydro-8H-7,10-methanocyclopropa[18,19][1,10,3,6]dioxadiazacyclononadecino[11,12-b]quinoxaline-8-carboxamide]: the figures for the Ki on NS3 genotype 1b protease and at NS3 genotype 3a protease were 0.04 nM and 0.08 nM, respectively.
For `CC[C@@H]1[C@@H]2CN(C(=O)[C@H](C(C)(C)C)NC(=O)O[C@@H]3C[C@H]3CCCCC(F)(F)c3nc4ccc(OC)cc4nc3O2)[C@@H]1C(=O)N[C@]1(C(=O)NS(=O)(=O)C2(C)CC2)C[C@H]1C(F)F` [Example 17, (1aR,5S,8S,9S,10R,22aR)-5-tert-butyl-N-[(1R,2R)-2-(difluoromethyl)-1-{[(1-methylcyclopropyl)sulfonyl]carbamoyl}cyclopropyl]-9-ethyl-18,18-difluoro-14-methoxy-3,6-dioxo-1,1a,3,4,5,6,9,10,18,19,20,21,22,22a-tetradecahydro-8H-7,10-methanocyclopropa[18,19][1,10,3,6]dioxadiazacyclononadecino[11,12-b]quinoxaline-8-carboxamide], the affinity at NS3 genotype 1b protease corresponds to a Ki of 0.04 nM.
`COc1ccc2nc3c(nc2c1)O[C@H]1CN(C(=O)[C@H](C(C)(C)C)NC(=O)O[C@@H]2C[C@H]2CCCCC3)[C@H](C(=O)N[C@]2(C(=O)NS(=O)(=O)C3(C)CC3)C[C@H]2C(F)F)[C@@H]1C` [Example 18, (1aR,5S,8S,9S,10R,22aR)-5-tert-butyl-N-[(1R,2R)-2-(difluoromethyl)-1-{[(1-methylcyclopropyl)sulfonyl]carbamoyl}cyclopropyl]-14-methoxy-9-methyl-3,6-dioxo-1,1a,3,4,5,6,9,10,18,19,20,21,22,22a-tetradecahydro-8H-7,10-methanocyclopropa[18,19][1,10,3,6]dioxadiazacyclononadecino[11,12-b]quinoxaline-8-carboxamide]: the EC50 is 1.2 nM in data set [2], 2.3 nM in data set [3] and 24 nM in data set [4].
For `COc1ccc2nc3c(nc2c1)O[C@H]1CN(C(=O)[C@H](C(C)(C)C)NC(=O)O[C@]2(C)C[C@H]2CCCCC3(F)F)[C@H](C(=O)N[C@]2(C(=O)NS(=O)(=O)C3(C)CC3)C[C@H]2C(F)F)[C@@H]1C` (single isomer, unassigned) [Example 76], the Ki on NS3 genotype 1b protease worked out at 0.03 nM.

The record behind these values is patent publication US20150175655A1 (priority 2012, published 2015).
